In patent US11208400B2, “Substituted 6-(1H-pyrazol-1-yl)pyrimidin-4-amine derivatives and uses thereof” (Bayer Aktiengesellschaft, priority 2016, dated 2021):

biological target: T1, human Npt2a (Homo sapiens, UniProt Q06495); test: Npt2a activity cell based assay, membrane potential dye, CHO T-REx hNpt2a cells; conditions: doxycycline-induced, depolarization by sodium phosphate influx, average or median values if tested more than once
T1 construct: expressed in transfected cells
T1 sequence (Q06495 1-639): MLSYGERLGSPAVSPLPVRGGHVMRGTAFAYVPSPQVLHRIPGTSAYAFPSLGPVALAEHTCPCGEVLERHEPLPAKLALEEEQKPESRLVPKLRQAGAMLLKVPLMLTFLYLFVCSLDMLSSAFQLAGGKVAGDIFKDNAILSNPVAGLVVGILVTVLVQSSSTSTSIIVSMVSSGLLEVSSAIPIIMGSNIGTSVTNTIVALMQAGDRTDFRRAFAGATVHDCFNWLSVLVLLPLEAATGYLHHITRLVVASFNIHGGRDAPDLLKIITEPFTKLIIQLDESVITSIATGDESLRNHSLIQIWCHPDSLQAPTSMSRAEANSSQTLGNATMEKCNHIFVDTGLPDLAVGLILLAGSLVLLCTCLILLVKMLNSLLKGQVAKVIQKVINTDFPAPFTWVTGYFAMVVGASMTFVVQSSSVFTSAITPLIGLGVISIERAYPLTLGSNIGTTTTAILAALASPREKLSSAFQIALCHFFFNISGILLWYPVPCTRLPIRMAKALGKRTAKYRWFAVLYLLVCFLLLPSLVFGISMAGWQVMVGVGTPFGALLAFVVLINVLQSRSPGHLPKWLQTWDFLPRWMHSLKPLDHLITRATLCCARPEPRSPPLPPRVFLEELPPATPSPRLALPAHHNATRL
Procedure, shortened: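 Cells were doxycycline-induced CHO T-REx hNpt2a, dye-loaded and pretreated 5 min at RT with 1 nM–50 μM compound in Na-free pH 7.4 buffer. IC50 was fit to the post/pre-trigger fluorescence ratio.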

First: CCOC(=O)c1c(C)nn(-c2cc(Nc3c(CC)c(-c4ccc(C#N)cc4)nn3CC3CC3)ncn2)c1C [Example 156, ethyl 1-(6-{[3-(4-cyanophenyl)-1-(cyclopropylmethyl)-4-ethyl-1H-pyrazol-5-yl]amino}pyrimidin-4-yl)-3,5-dimethyl-1H-pyrazole-4-carboxylate]
Second: CCc1c(-c2ccc(C#N)cc2)nn(CC2CC2)c1Nc1cc(-n2nc(C)c(Cl)c2C)ncn1 [Example 157, 4-[5-{[6-(4-chloro-3,5-dimethyl-1H-pyrazol-1-yl)pyrimidin-4-yl]amino}-1-(cyclopropylmethyl)-4-ethyl-1H-pyrazol-3-yl]benzonitrile]
The IC50 of the first is 3-fold lower: 2 nM for the first, 6 nM for the second.

First: CCOC(=O)c1c(C)nn(-c2cc(Nc3c(Cl)c(-c4ccc(F)cc4)nn3CC3CC3)ncn2)c1C [Example 158, ethyl 1-(6-{[4-chloro-1-(cyclopropylmethyl)-3-(4-fluorophenyl)-1H-pyrazol-5-yl]amino}pyrimidin-4-yl)-3,5-dimethyl-1H-pyrazole-4-carboxylate]
Second: Cc1nn(-c2cc(Nc3c(C)c(-c4ccc(F)cc4)nn3CC3CC3)ncn2)c(C)c1Cl [Example 175, 6-(4-chloro-3,5-dimethyl-1H-pyrazol-1-yl)-N-[1-(cyclopropylmethyl)-3-(4-fluorophenyl)-4-methyl-1H-pyrazol-5-yl]pyrimidin-4-amine]
The IC50 of the first is 3.5-fold lower: 4 nM for the first, 14 nM for the second.

First: Cc1nn(-c2cc(Nc3c(C)c(-c4ccc(F)cc4)nn3CC3CC3)ncn2)c(C)c1C(C)(C)O [Example 159, 2-[1-(6-{[1-(cyclopropylmethyl)-3-(4-fluorophenyl)-4-methyl-1H-pyrazol-5-yl]amino}pyrimidin-4-yl)-3,5-dimethyl-1H-pyrazol-4-yl]propan-2-ol]
Second: Cc1nn(-c2cc(Nc3c(C)c(-c4ccc(C#N)cc4)nn3CC3CC3)ncn2)c(C)c1C(C)(C)O [Example 165, 4-[1-(cyclopropylmethyl)-5-({6-[4-(2-hydroxypropan-2-yl)-3,5-dimethyl-1H-pyrazol-1-yl]pyrimidin-4-yl}amino)-4-methyl-1H-pyrazol-3-yl]benzonitrile]
The IC50 of the first is 2.7-fold higher: 8 nM for the first, 3 nM for the second. The second is the more potent here.

Compared with `Cc1nn(-c2cc(Nc3nn(CC4CC4)c(-c4ccc(F)cc4)c3Cl)ncn2)c(C)c1C(C)(C)O` [Example 160, 2-[1-(6-{[4-chloro-1-(cyclopropylmethyl)-5-(4-fluorophenyl)-1H-pyrazol-3-yl]amino}pyrimidin-4-yl)-3,5-dimethyl-1H-pyrazol-4-yl]propan-2-ol], `Cc1nn(-c2cc(Nc3nn(CC4CC4)c(-c4ccc(F)cc4)c3C)ncn2)c(C)c1Cl` [Example 170, 6-(4-chloro-3,5-dimethyl-1H-pyrazol-1-yl)-N-[1-(cyclopropylmethyl)-5-(4-fluorophenyl)-4-methyl-1H-pyrazol-3-yl]pyrimidin-4-amine] is 2.5-fold lower in IC50: 1110 nM for the first, 440 nM for the second. The second is the more potent here.

Going from `CCc1c(-c2ccc(F)cc2)nn(CC(F)F)c1Nc1cc(-n2nc(C)cc2C)ncn1` [Example 162, N-[1-(2,2-difluoroethyl)-4-ethyl-3-(4-fluorophenyl)-1H-pyrazol-5-yl]-6-(3,5-dimethyl-1H-pyrazol-1-yl)pyrimidin-4-amine] to `CCc1c(Nc2cc(-n3nc(C)cc3C)ncn2)nn(CC(F)F)c1-c1ccc(F)cc1` [Example 173, N-[1-(2,2-difluoroethyl)-4-ethyl-5-(4-fluorophenyl)-1H-pyrazol-3-yl]-6-(3,5-dimethyl-1H-pyrazol-1-yl)pyrimidin-4-amine], the IC50 falls from 97 nM to 16 nM (6.1-fold). The second is the more potent here.

First: CCc1c(-c2ccc(F)cc2)nn(CC(F)F)c1Nc1cc(-n2nc(C)c(Cl)c2C)ncn1 [Example 163, 6-(4-chloro-3,5-dimethyl-1H-pyrazol-1-yl)-N-[1-(2,2-difluoroethyl)-4-ethyl-3-(4-fluorophenyl)-1H-pyrazol-5-yl]pyrimidin-4-amine]
Second: CCc1c(Nc2cc(-n3nc(C)c(Cl)c3C)ncn2)nn(CC(F)F)c1-c1ccc(F)cc1 [Example 174, 6-(4-chloro-3,5-dimethyl-1H-pyrazol-1-yl)-N-[1-(2,2-difluoroethyl)-4-ethyl-5-(4-fluorophenyl)-1H-pyrazol-3-yl]pyrimidin-4-amine]
The IC50 of the first is 2.2-fold higher: 71 nM for the first, 33 nM for the second.

`CCc1c(-c2ccc(C#N)cc2)nn(CC2CC2)c1Nc1cc(-n2nc(C)c(Cl)c2C(F)F)ncn1` [Example 164, 4-[5-({6-[4-chloro-5-(difluoromethyl)-3-methyl-1H-pyrazol-1-yl]pyrimidin-4-yl}amino)-1-(cyclopropylmethyl)-4-ethyl-1H-pyrazol-3-yl]benzonitrile] and `Cc1nn(-c2cc(Nc3c(C)c(-c4ccc(F)cc4)nn3CC3CC3)ncn2)c(C(F)F)c1Cl` [Example 176, 6-[4-chloro-5-(difluoromethyl)-3-methyl-1H-pyrazol-1-yl]-N-[1-(cyclopropylmethyl)-3-(4-fluorophenyl)-4-methyl-1H-pyrazol-5-yl]pyrimidin-4-amine] are within 1.5-fold of each other in IC50: 11 nM for the first, 13 nM for the second.

First: CCc1c(Nc2cc(-n3nc(C)c(C(=O)OC(C)(C)C)c3C(F)F)ncn2)nn(C)c1-c1ccc(F)cc1 [Example 166, tert-butyl 5-(difluoromethyl)-1-(6-{[4-ethyl-5-(4-fluorophenyl)-1-methyl-1H-pyrazol-3-yl]amino}pyrimidin-4-yl)-3-methyl-1H-pyrazole-4-carboxylate]
Second: CCOC(=O)c1c(Cl)c(C)nn1-c1cc(Nc2nn(C)c(-c3ccc(F)cc3)c2CC)ncn1 [Example 178, ethyl 4-chloro-1-(6-{[4-ethyl-5-(4-fluorophenyl)-1-methyl-1H-pyrazol-3-yl]amino}pyrimidin-4-yl)-3-methyl-1H-pyrazole-5-carboxylate]
The IC50 of the first is 2.9-fold lower: 9 nM for the first, 26 nM for the second. The first is the more potent here.

First: CCc1c(Nc2cc(-n3nc4ncccc4c3C)ncn2)nn(C)c1-c1ccc(F)cc1 [Example 167, N-[4-ethyl-5-(4-fluorophenyl)-1-methyl-1H-pyrazol-3-yl]-6-(3-methyl-2H-pyrazolo[3,4-b]pyridin-2-yl)pyrimidin-4-amine]
Second: CCc1c(Nc2cc(-n3nc(C)c4ccncc43)ncn2)nn(C)c1-c1ccc(F)cc1 [Example 168, N-[4-ethyl-5-(4-fluorophenyl)-1-methyl-1H-pyrazol-3-yl]-6-(3-methyl-1H-pyrazolo[3,4-c]pyridin-1-yl)pyrimidin-4-amine]
The IC50 of the first is 37-fold higher: 550 nM for the first, 15 nM for the second.

Going from `Cc1cc(C)n(-c2cc(Nc3nn(CC4CC4)c(-c4ccc(F)cc4)c3C)ncn2)n1` [Example 169, N-[1-(cyclopropylmethyl)-5-(4-fluorophenyl)-4-methyl-1H-pyrazol-3-yl]-6-(3,5-dimethyl-1H-pyrazol-1-yl)pyrimidin-4-amine] to `Cc1cc(C)n(-c2cc(Nc3c(C)c(-c4ccc(F)cc4)nn3CC3CC3)ncn2)n1` [Example 171, N-[1-(cyclopropylmethyl)-3-(4-fluorophenyl)-4-methyl-1H-pyrazol-5-yl]-6-(3,5-dimethyl-1H-pyrazol-1-yl)pyrimidin-4-amine], the IC50 falls from 690 nM to 12 nM (58-fold).

`CCc1c(Nc2cc(-n3nc(C)c(Cl)c3C(F)F)ncn2)nn(CC(F)F)c1-c1ccc(F)cc1` [Example 172, 6-[4-chloro-5-(difluoromethyl)-3-methyl-1H-pyrazol-1-yl]-N-[1-(2,2-difluoroethyl)-4-ethyl-5-(4-fluorophenyl)-1H-pyrazol-3-yl]pyrimidin-4-amine] and `CCOC(=O)c1c(C)nn(-c2cc(Nc3nn(CC(F)F)c(-c4ccc(F)cc4)c3CC)ncn2)c1C` [Example 177, ethyl 1-(6-{[1-(2,2-difluoroethyl)-4-ethyl-5-(4-fluorophenyl)-1H-pyrazol-3-yl]amino}pyrimidin-4-yl)-3,5-dimethyl-1H-pyrazole-4-carboxylate] are within 1.5-fold of each other in IC50: 57 nM for the first, 41 nM for the second.
